# Assay results from ChEMBL document CHEMBL1136211, “Design of quinolinedione-based geldanamycin analogues” (2003).
# Key:
# Format in all cases: functional
# [1] = system: Cancer cell lines; test: Concentration required to inhibit growth of cells in 60 cancer cell lines
# [2] = system: Cancer cell lines; test: Concentration required to kill cells
# [3] = system: Cancer cell lines; test: Concentration required to inhibit total growth of cells in 60 cancer cell lines; settings: read-out: Log TGI (converted)
SMILES,GI50 [1] [nM],LC50 [2] [nM],TGI [3] [nM]
O=C1C=C(N2CC2)C(=O)c2nc(-c3ccccc3)ccc21,263,11200,1780
O=C1C(NCCCl)=CC(=O)c2nc(-c3ccccc3)ccc21,27.5,2040,324
O=C1C=C(N2CC2)C(=O)c2nc(-c3ccc4ccccc4c3)ccc21,3470,40700,10700
O=C1C(N2CC2)=CC(=O)c2nc(-c3ccccn3)ccc21,646,9770,2450
O=C1C(N2CC2)=CC(=O)c2nc(-c3ccccc3)ccc21,52.5,4070,513
O=C1C(N2CC2)=CC(=O)c2nc(-c3ccc4ccccc4c3)ccc21,204,5620,1070
O=C1/C(=N/CCO)C=C(O)c2nc(-c3ccccc3)ccc21,2950,60300,20000
